Test results reported in US20250387422A1, “FORMULATION OF AN AMPHOTERICIN B HYBRID AMIDE DERIVATIVE IN DSGPEG2K MICELLES” (The Board of Trustees of the University of Illinois, priority 2022, published 2025).
“Also recorded” adds a separate entry of the source.

Experiments:
Format in all cases: physicochemical
[1] = In vitro plasma compatibility of AM-2-19 in human plasma
Source text: The in vitro plasma compatibility of AM-2-19 in human plasma is represented below: […]

[2] = Solution stability of AM-2-19 in IV-compatible solvents (FIG. 1); conditions: IV-compatible solvents such as 5% dextrose in water (D5W)
[3] = Solubility of AM-2-19-FB in D5W/DSG-PEG2000; conditions: aqueous with cosolvent or surfactant or cyclodextrin
[4] = ratio 1:0.1, final concentration AM-2-19 0.09 mg/mL
[5] = ratio 1:0.1, final concentration AM-2-19 0.18 mg/mL
[6] = ratio 1:0.1, final concentration AM-2-19 0.45 mg/mL
[7] = ratio 1:1, final concentration AM-2-19 0.50 mg/mL
[8] = ratio 1:1, final concentration AM-2-19 1.00 mg/mL
[9] = ratio 1:1, final concentration AM-2-19 2.50 mg/mL

**Q.** With `CC1OC(OC2/C=C/C=C/C=C/C=C/C=C/C=C/C=C/[C@H](C)[C@@H](O)[C@@H](C)[C@H](C)OC(=O)C[C@H](O)C[C@H](O)CC[C@@H](O)[C@H](O)C[C@H](O)C[C@]3(O)C[C@H](O)[C@@H](C(=O)NC(CO)CO)C(C2)O3)C(O)C(N)C1O` (stereo partly drawn) [AM-2-19] as the molecule, how does the Compatibility [1, 4] read?
**A.** The Compatibility was “compatible”.

**Q.** What about the “Precipitate/Pellet or Coagulation Observed” value [1, 4] of the same molecule?
**A.** Its value is “None”.

**Q.** And the Compatibility [1, 5]?
**A.** Its Compatibility is “compatible”.

**Q.** And the “Precipitate/Pellet or Coagulation Observed” value [1, 5]?
**A.** The value was “None”.

**Q.** What about the Compatibility [1, 6] of the same molecule?
**A.** Its Compatibility is “Not compatible”.

**Q.** And the “Precipitate/Pellet or Coagulation Observed” value [1, 6]?
**A.** Its value is “Pellet (Very Light)”.

**Q.** And the Compatibility [1, 7]?
**A.** The Compatibility was “Not compatible”.

**Q.** What about the “Precipitate/Pellet or Coagulation Observed” value [1, 7] of the same molecule?
**A.** Its value is “Pellet (Light)”.

**Q.** And the Compatibility [1, 8]?
**A.** Its Compatibility is “Not compatible”.

**Q.** What about the “Precipitate/Pellet or Coagulation Observed” value [1, 8] of the same molecule?
**A.** Its value is “Pellet (Moderate)”.

**Q.** What about the Compatibility [1, 9] of the same molecule?
**A.** Its Compatibility is “Not compatible”.

**Q.** And the “Precipitate/Pellet or Coagulation Observed” value [1, 9]?
**A.** Its value is “Pellet (Severe)”.

**Q.** And the solution stability [2]?
**A.** Its solution stability is “unstable even over the course of hours; also recorded: lacks solution stability”.

**Q.** And the solubility ([3]; in D5W/DSG-PEG2000 (1:3 molar ratio) without the acetate buffer)?
**A.** The solubility was about 100 µg/mL.

**Q.** And the solubility ([3]; in D5W/DSG-PEG2000 with acetate buffer)?
**A.** The solubility was over 8000 µg/mL.
